Consider 7 compounds from PubChem BioAssay (NCI).

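48-hour exposure; five concentrations; linearly interpolated endpoints. TGI is the concentration that stops growth completely.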 Where a SMILES comes first, the peptide text is derived from it. The star is where a group is joined. Cbz = O=C(OCc1ccccc1)*

Among the test systems are A498 renal; A549 NSCLC; BT-549 breast; COLO 205 colon; DU-145 prostate; HOP-62 NSCLC; IGROV1 ovarian; K-562 leukemia; LOX IMVI melanoma; OVCAR-5 ovarian; SN12C renal; SNB-19 CNS; U251 CNS.
Common to all, as to assay: growth of human tumour cells (NCI), 48 h

For the compound `CCOC(=O)CCC(NC(=O)C(Cc1ccccc1)NC(=O)OCc1ccccc1)C(=O)OCC` (stereo not drawn) (Cbz-Phe-Glu(OEt)-OEt; configuration not given here), the TGI in the test with A498 renal was 43.9 µM; with A549 NSCLC, 36.9 µM; in the test with BT-549 breast, greater than 100 µM; with COLO 205 colon it was 35.3 µM; with DU-145 prostate, 22.3 µM; in the test with HOP-62 NSCLC it was 32.5 µM. The TGI in the test with IGROV1 ovarian is 32.3 µM; in the test with K-562 leukemia, greater than 100 µM; in the test with LOX IMVI melanoma, 27.9 µM; in the test on OVCAR-5 ovarian, 32.6 µM; with SN12C renal it was 37.7 µM; in the test with SNB-19 CNS, 36.7 µM. The compound further gave a TGI in the test with U251 CNS of 28.9 µM.

For `O=C1/C(=C\c2cccc(Oc3ccccc3)c2)S(=O)(=O)C(c2ccccc2)N1c1cccc(Cl)c1` (stereo unspecified), the TGI in the test with A498 renal, in the test on A549 NSCLC, in the test with BT-549 breast, with COLO 205 colon, in the test on DU-145 prostate and in the test with HOP-62 NSCLC was greater than 100 µM each time. In addition, the TGI with IGROV1 ovarian was greater than 100 µM; in the test on K-562 leukemia, greater than 100 µM; in the test with LOX IMVI melanoma it was 44.8 µM; in the test on OVCAR-5 ovarian it was greater than 100 µM; with SN12C renal, greater than 100 µM; in the test with SNB-19 CNS, greater than 100 µM. In the test with U251 CNS, this compound had a TGI greater than 100 µM.

With `c1ccc2c3[nH]c(c2c1)=Nc1ccc(cc1)-c1nc2ccc(cc2o1)N=c1[nH]c(c2ccccc12)=Nc1ccc2nc(oc2c1)-c1ccc(cc1)N=3`, the TGI with A498 renal is greater than 100 µM; in the test on A549 NSCLC it was greater than 100 µM; in the test on BT-549 breast, greater than 100 µM; in the test with COLO 205 colon, 67.8 µM; in the test with DU-145 prostate, greater than 100 µM; in the test on HOP-62 NSCLC, greater than 100 µM. Moreover, the TGI in the test with IGROV1 ovarian is greater than 100 µM; in the test with K-562 leukemia, 51.5 µM; in the test with LOX IMVI melanoma, greater than 100 µM; with OVCAR-5 ovarian, greater than 100 µM; with SN12C renal, greater than 100 µM; in the test on SNB-19 CNS, 81 µM. The compound also had a TGI in the test on U251 CNS of 88.3 µM.

In the case of `COCCn1cnc2c(Cl)nc(Nc3ccccc3)nc21`, the TGI with A498 renal is greater than 100 µM; in the test with A549 NSCLC it was greater than 100 µM; with BT-549 breast, 99 µM; in the test on COLO 205 colon it was greater than 100 µM; in the test with DU-145 prostate, greater than 100 µM; in the test with HOP-62 NSCLC it was greater than 100 µM. The TGI is 50.9 µM with IGROV1 ovarian; greater than 100 µM with K-562 leukemia; 33.2 µM with LOX IMVI melanoma; greater than 100 µM in the test with OVCAR-5 ovarian; 95.4 µM in the test with SN12C renal; greater than 100 µM in the test with SNB-19 CNS. Also, the TGI in the test with U251 CNS is greater than 100 µM.

On to `CC(=O)O[C@@]12CO[C@@H]1CC(O)[C@@]1(C)C(=O)[C@H](O)C3=C(C)C(O)C[C@@](O)(C(OC(=O)c4ccccc4)C12)C3(C)C` (stereo partly specified), for which the TGI in the test on A498 renal is greater than 100 µM; with A549 NSCLC it was greater than 100 µM; with BT-549 breast, greater than 100 µM; in the test on COLO 205 colon it was 6.72 µM; with DU-145 prostate, greater than 100 µM; with HOP-62 NSCLC, greater than 100 µM. Besides, the TGI in the test on IGROV1 ovarian is greater than 100 µM; in the test with K-562 leukemia it was greater than 100 µM; with LOX IMVI melanoma, greater than 100 µM; in the test on OVCAR-5 ovarian it was greater than 29.1 µM; in the test with SN12C renal it was greater than 100 µM; in the test with SNB-19 CNS it was greater than 100 µM. Besides, the TGI in the test on U251 CNS was determined as 18.1 µM.

With `Cc1ccnc2c1C(=O)C1=C(OC(C)(C)CC1O)C2=O` (stereo unspecified), the TGI with A498 renal came to 32 µM; with A549 NSCLC, 21.6 µM; with BT-549 breast, 12.7 µM; in the test with COLO 205 colon, 6.52 µM; in the test with DU-145 prostate, 17.2 µM; with HOP-62 NSCLC it was 13.6 µM. The TGI is 11.3 µM with IGROV1 ovarian; greater than 100 µM in the test with K-562 leukemia; 8.91 µM in the test on LOX IMVI melanoma; 20.6 µM with OVCAR-5 ovarian; 12.4 µM with SN12C renal; 21.1 µM with SNB-19 CNS. Moreover, the TGI with U251 CNS came to 13.2 µM.

In the case of `CC(=O)SC(C[N+](=O)[O-])c1ccc2c(c1)OCO2` (stereo unspecified), the TGI with A498 renal is 18.3 µM; in the test with A549 NSCLC, 24.1 µM; in the test on BT-549 breast, 14.2 µM; in the test on COLO 205 colon, 36.9 µM; in the test with DU-145 prostate it was 33.7 µM; with HOP-62 NSCLC, 36.5 µM. For the same compound, the TGI in the test on IGROV1 ovarian was 19.8 µM; with K-562 leukemia, greater than 28.7 µM; in the test on LOX IMVI melanoma, 4.35 µM; with OVCAR-5 ovarian it was 16 µM; in the test with SN12C renal, 14.7 µM; in the test with SNB-19 CNS it was 21.5 µM. Besides, the TGI in the test on U251 CNS came out at 13 µM.
